Here are results for one molecule from article PMC6884575, “Suppression of FOXM1 activities and breast cancer growth in vitro and in vivo by a new class of compounds” (NPJ Breast Cancer, 2019).

Molecules are shown by their SMILES.

The subject of data set [1] is MCF7 cells. The data set can be described thus: RNA-Seq gene regulation in MCF7 cells. Type of data set: cell-based, human. Here is the method:
For gene expression analysis, total RNA was extracted from cells using Trizol reagent and further cleaned using the Turbo DNase and RNAqueous kits (ThermoFisher). Cells were treated with Veh (0.1% EtOH), or with the compounds indicated for 9 h or 24 h. Once the sample quality and replicate reproducibility were verified, samples from each group were subjected to sequencing. RNA at a concentration of 100 ng/µl in nuclease-free water was used for library construction. cDNA libraries were prepared with the mRNA-TruSeq Kit (Illumina, Inc.). In brief, the poly-A containing mRNA was purified from total RNA, the RNA was fragmented, double-stranded cDNA was generated from fragmented RNA, and adapters were ligated to the ends.
The paired-end read data from the HiSeq 4000 were processed and analyzed through a series of steps. Base calling and de-multiplexing of samples within each lane were done with Casava 1.8.2. The RNA sequences were prepared with Illumina’s TruSeq Stranded mRNAseq Sample Prep kit. Reads were trimmed of adapters and low expression data using Trimmomatic version 0.38.[42] The STAR alignment tool version 2.5.3a was used to align the sequenced reads to the GRCh37 human genome from Ensembl.[43] Gene counts were calculated using subread version 1.5.2.[44],[45] The edgeR Bioconductor package in R was used for normalization and differential expression analysis. Default normalization methods were used, specifically trimmed mean of M values or TMM was used to calculate the normalized expression values. This method calculates the weighted trimmed mean of the log expression ratios in a gene-wise fashion.[46],[47] We considered genes with fold-change > 2 and p-value < 0.05 as statistically significant, differentially expressed.

In data set [2] the target is T1, FOXM1 (Homo sapiens, UniProt Q08050).
T1 sequence (Q08050 1-763): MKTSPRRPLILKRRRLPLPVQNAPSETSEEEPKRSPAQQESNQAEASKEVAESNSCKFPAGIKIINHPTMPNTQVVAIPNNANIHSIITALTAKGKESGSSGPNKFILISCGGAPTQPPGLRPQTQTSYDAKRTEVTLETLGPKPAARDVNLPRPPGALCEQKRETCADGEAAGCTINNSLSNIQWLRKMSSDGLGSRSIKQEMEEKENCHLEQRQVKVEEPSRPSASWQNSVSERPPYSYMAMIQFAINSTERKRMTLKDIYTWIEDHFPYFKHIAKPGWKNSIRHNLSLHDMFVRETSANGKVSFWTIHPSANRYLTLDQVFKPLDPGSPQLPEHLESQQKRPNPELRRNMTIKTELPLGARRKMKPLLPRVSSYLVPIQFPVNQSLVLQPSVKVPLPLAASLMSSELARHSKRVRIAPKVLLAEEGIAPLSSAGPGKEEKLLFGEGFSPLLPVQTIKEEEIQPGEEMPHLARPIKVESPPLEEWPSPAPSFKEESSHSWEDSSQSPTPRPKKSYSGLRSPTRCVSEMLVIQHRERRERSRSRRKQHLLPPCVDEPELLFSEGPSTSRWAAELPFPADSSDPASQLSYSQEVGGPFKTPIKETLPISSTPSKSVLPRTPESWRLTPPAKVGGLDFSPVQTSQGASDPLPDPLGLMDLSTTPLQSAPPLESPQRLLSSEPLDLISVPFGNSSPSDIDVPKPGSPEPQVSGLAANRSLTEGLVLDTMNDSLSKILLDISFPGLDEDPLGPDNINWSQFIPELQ
Nature of the data set: tr-FRET competitive binding assay with Fl-NB-72 probe. Further details: we attached a terbium donor to purified, full length FOXM1 through a streptavidin-biotin linker. Particulars: calculated from IC50 values; Supplementary Table 1; read-out: Ki, affinity for binding to FOXM1 protein. As to the method: Competitive binding assays of compound binding to FOXM1 by tr-FRET were done in FRET buffer (20 mM Tris, pH 7.5, 50 mM NaCl, 0.01% NP-40 detergent, 10% glycerol) with 0.3 mg/ml ovalbumin and 0.1 mM butylated hydroxy-anisole added fresh daily. Solutions of the protein, fluorescent probe and compound dilutions were prepared at 3× concentrations, the final dilution taking place as they were mixed together in equal portions on the microtiter plate.
Final concentrations were 10^−5 M to 10^−9 M, with the last point being buffer only, no compound. Fluorescein-NB-72 (Fl-NB- 72) was prepared at 1 mM in DMF and stored at −20 °C. It was diluted into FRET buffer to give 100 nM in the assay. Incubations were done in duplicate on black Molecular Devices 96-well microtiter plates. 5 μl of Fl-NB-72 and 5 μl of the compound dilutions, were mixed together on the plate. To this was added 5 µl biotin-FoxM1 and incubated in the dark at room temperature, for 1 h. […] To correct for background signals, biotin-FOXM1 was omitted, and diffusion-enhanced FRET incubations were done in duplicate on black Molecular Devices 96-well microtiter plates. Five microliter of Fl-NB-72 and 5 μl of the compound solutions were mixed together and then 5 µl of FRET buffer plus SaTb was added, mixed and incubated in the dark at room temperature, for 1 h. The tr-FRET signals measured as above were subtracted as a background from the first incubations that contained biotin-FOXM1. Graphs were prepared using Graph Pad/Prism 4.

Data set [3] deals with T1, FOXM1. The data set can be described thus: Intracellular localization of FOXM1 (immunofluorescence, nuclear/cytoplasmic fractionation). Set-up: endogenous in cells; host or cells: MDA-MB-231, MCF7. Type of data set: cell-based. As to conditions: 24 h, Western blot of nuclear and cytoplasmic extracts. Here is the method:
(§1) In some cases, treatments with compound were done in the presence of the proteasome inhibitor MG132 (Calbiochem) as described in the figure legend. […] Band intensities were analyzed with Licor Odyssey 2.1 software. All blots shown together derive from the same experiment and were processed in parallel. Full uncropped images of blots are shown as supplementary figures in the Supplementary Information file. Molecular weight markers were Rainbow markers from GE Healthcare (38–225 kDa) or Precision Plus Dual Color Markers from Biorad (37–250 kDa).

Data set [4] has as its system FOXM1 target gene expression in MCF7 cells. Nature of the data set: FOXM1 target gene expression by qRT-PCR. The data set is classed as cell-based, human. As to conditions: MCF7, 24 h, compound at its IC50 for proliferation. As to the method: Total RNA was isolated using TRIzol (Invitrogen) and reverse transcribed using […] reverse transcriptase (New England BioLabs). Real-time PCR was performed using SYBRgreen PCR Master Mix (Quantabio) as described.[15] Relative mRNA levels of genes were normalized to the housekeeping gene 36B4, and fold-change calculated relative to the vehicle treated samples. Results are the average ± SD from at least two independent experiments carried out in triplicate. Primer sequences for the genes studied were obtained from the Harvard Primer Bank. Sequences are available on their website.

For data set [5], the system named is human breast cancer cell lines (DT22, MCF7, T47D, BT474, MDA-MB-453, MDA-MB-468, MDA-MB-231). The data set can be described thus: Cell proliferation (WST-1) in panel of breast cancer cell lines. Type of data set: cell-based. As to conditions: cells in culture. Here is the method:
WST-1 assay (Roche, Basel, Switzerland) was used to quantify cell viability as described.[38] Absorbance was measured at 450 nm using a VICTOR X5 PerkinElmer 2030 Multilabel Plate Reader. All assays were performed in triplicate and analyzed using Graph Pad Prism 8.0.

In data set [6] the target is T1, FOXM1. Nature of the data set: Cellular FOXM1 protein level by Western blot. Type of data set: cell-based. Set-up: endogenous in cells; host or cells: MDA-MB-231, MCF7. Particulars: MDA-MB-231 or MCF7 cells over time; NB-55 5/8 µM, NB-73 1.5/4 µM, NB-115 4 µM, FDI-6 8 µM. Here is the method: as §1, with “For Western blot analysis, whole-cell extracts were prepared using 1X RIPA lysis buffer (Thermo Fisher) supplemented with 1X protease inhibitor cocktail (Millipore Sigma). […] In some” for “In some”

A short description of data set [7]: Pharmacokinetics in mice after single s.c. or oral dose. Type of data set: in vivo, female CD1 mice.
Procedure: The pharmacokinetics of compounds were monitored after single dose administration into female CD1 mice (7–9 weeks of age) via s.c. injection or oral gavage, as described.[39] For s.c. injection, each compound was dissolved in DMSO and then mixed with corn oil for a total injection volume of 100 μL (10% DSMO + 90% corn oil) per mouse. For oral gavage, compounds were administered in a 200 µL formulation of 9/0.5/0.5/90 parts of PEG400/Tween80/Povidone/0.5% Carboxymethylcellulose in DI water. […] Compounds were quantified by LC-MS/MS at the University of Illinois Metabolomics Core Facility. The data were fitted to a non-compartment model.

On to `Nc1c(C(=O)Nc2ccc(F)cc2)sc2nc(-c3cccs3)cc(C(F)(F)F)c12` [FDI-6, reference compound], for which the “genes regulated that overlapped with NB-73 regulated genes” value in data set [1] (MCF7, 9 h, more than 2-fold, FDR < 0.05) was 48%. In data set [1] (MCF7, 9 h treatment, p < 0.05, FDI-6 20 µM), the “genes regulated more than 2-fold (Venn diagram)” value is on record as 664 genes. In addition, the Ki in data set [2] is 143 nM. In addition, in data set [3], the “intracellular localization of FOXM1” value is listed as “does not change the intracellular localization of FOXM1”. Also, in data set [4], the “expression of ATF3, a gene suppressed by FOXM1” value is “increased expression of ATF3” and the “expression of FOXM1 stimulated target genes (FOXM1C, AURKB, CCNB1, PLK1)” value was “significantly reduced the expression”. Besides, the “potency in cells in culture” value in data set [5] is listed as “potency similar to NB-55”. Also, the “intracellular level of FOXM1” value in data set [6] was “minimally affected”. The blood levels entry in data set [7] (oral, 40 mg/kg) is given as “undetectable”. Also, in data set [7] (s.c., 20 mg/kg), the blood levels result is given as “only very low blood levels”.
